According to ChEMBL document CHEMBL3351627, “Design and synthesis of 3-isoxazolidone derivatives as new Chlamydia trachomatis inhibitors” (Bioorg Med Chem Lett, 2014):
Active and inactive are the calls of the source. No cut-off for these calls is given here.

Legend:
Chlamydia trachomatis [1] = assay: Bactericidal activity against Chlamydia trachomatis serovar L2 infected in human HeLa cells assessed as reduction in inclusion forming unit compound treated at 5 to 25 uM for 1 hr prior infection measured 24 hrs post infection by immunofluorescence assay in presence of 200 uM iron citrate; type: functional, organism-based
[2] = Cytotoxicity against mouse fibroblasts at 5 to 200 uM after 24 to 48 hrs by trypan blue exclusion assay; type: cell-based; details: fibroblast
[3] = Iron chelating activity of the compound at pH 7.4 by UV-visible spectrophotometric titration; type: physicochemical
Chlamydia trachomatis [4] = assay: Bactericidal activity against Chlamydia trachomatis serovar L2 infected in human HeLa cells assessed as growth inhibition compound treated for 1 hr prior infection measured 24 hrs post infection by microscopy; type: functional, organism-based
HeLa = assay: Cytotoxicity against human HeLa cells at 5 to 200 uM after 24 to 48 hrs by trypan blue exclusion assay; type: cell-based
Chlamydia trachomatis [5] = assay: Bactericidal activity against Chlamydia trachomatis serovar L2 infected in human HeLa cells assessed as growth inhibition compound treated at 5 to 200 uM for 1 hr prior infection measured 24 hrs post infection by microscopy; type: functional, organism-based
Chlamydia trachomatis [6] = assay: Bactericidal activity against Chlamydia trachomatis serovar L2 infected in human HeLa cells assessed as growth inhibition compound treated at 50 to 200 uM for 1 hr prior infection measured 24 hrs post infection by microscopy; type: functional, organism-based
Chlamydia trachomatis [7] = assay: Bactericidal activity against Chlamydia trachomatis serovar L2 infected in human HeLa cells assessed as growth inhibition compound treated at 200 uM for 1 hr prior infection measured 24 hrs post infection by microscopy; type: functional, organism-based
Chlamydia trachomatis [8] = assay: Bactericidal activity against Chlamydia trachomatis serovar L2 infected in human HeLa cells assessed as growth inhibition compound treated at 100 to 200 uM for 1 hr prior infection measured 24 hrs post infection by microscopy in presence of 200 uM iron citrate; type: functional, organism-based
Chlamydia trachomatis [9] = assay: Bacteriostatic activity against Chlamydia trachomatis serovar L2 infected in human HeLa cells assessed as growth inhibition compound treated at >100 uM for 1 hr prior infection measured 24 hrs post infection by microscopy in presence of 200 uM iron citrate; type: functional, organism-based
Chlamydia trachomatis [10] = assay: Bacteriostatic activity against Chlamydia trachomatis serovar L2 infected in human HeLa cells assessed as growth inhibition compound treated at >100 uM for 1 hr prior infection measured 24 hrs post infection by microscopy; type: functional, organism-based

Activity [3] | SMILES | Activity (Chlamydia trachomatis [1]) | Activity [2] | growth inhibition (GI) (Chlamydia trachomatis [4]) | Activity (HeLa) | growth inhibition (GI) (Chlamydia trachomatis [5]) | growth inhibition (GI) (Chlamydia trachomatis [6]) | growth inhibition (GI) (Chlamydia trachomatis [7]) | growth inhibition (GI) (Chlamydia trachomatis [8]) | growth inhibition (GI) (Chlamydia trachomatis [9]) | growth inhibition (GI) (Chlamydia trachomatis [10])
Not Active | O=C(NCCN1OC[C@@H](NC(=O)c2ccc3ccccc3n2)C1=O)c1ccc2ccccc2n1 | Active | Non-toxic | Dose-dependent effect | Non-toxic | inactive | – | – | – | – | –
Active | O=C(N[C@@H]1CON(CCCCOC(=O)c2cccc(O)c2O)C1=O)c1cccc(O)c1O | – | Non-toxic | Dose-dependent effect | Non-toxic | – | Active | – | – | – | –
Active | O=C(NCCN1OC[C@@H](NC(=O)c2cccc(O)c2O)C1=O)c1cccc(O)c1O | Active | Non-toxic | Dose-dependent effect | Non-toxic | – | Active | – | – | – | –
Active | O=C(N[C@@H]1CON(CCOC(=O)c2cccc(O)c2O)C1=O)c1cccc(O)c1O | – | Non-toxic | Dose-dependent effect | Non-toxic | – | – | Active | – | – | –
Not Active | O=C(NCCN1OC[C@@H](NC(=O)c2ccc3cccc(O)c3n2)C1=O)c1ccc2cccc(O)c2n1 | Active | Non-toxic | Dose-dependent effect | Non-toxic | Active | – | – | Active | – | –
Active | O=C(NCCOC1=NOC[C@H]1NC(=O)c1cccc(O)c1O)c1cccc(O)c1O | Active | Non-toxic | – | Non-toxic | – | – | Active | – | – | –

Further lines, the compound ahead of its results:

SMILES | Activity [3] | Activity (Chlamydia trachomatis [1]) | Activity [2] | growth inhibition (GI) (Chlamydia trachomatis [4]) | Activity (HeLa) | growth inhibition (GI) (Chlamydia trachomatis [5]) | growth inhibition (GI) (Chlamydia trachomatis [6]) | growth inhibition (GI) (Chlamydia trachomatis [7]) | growth inhibition (GI) (Chlamydia trachomatis [8]) | growth inhibition (GI) (Chlamydia trachomatis [9]) | growth inhibition (GI) (Chlamydia trachomatis [10])
CC(=O)N(O)CCCCCNC(=O)CCC(=O)N(O)CCCCCNC(=O)CCC(=O)N(O)CCCCCN | – | – | – | – | – | – | – | – | – | inactive | Active
N[C@@H]1CONC1=O | – | Active | – | – | – | – | – | – | – | – | –
COc1cccc(C(=O)N[C@@H]2CON(CCc3c[nH]cn3)C2=O)c1OC | – | – | Non-toxic | Dose-dependent effect | Non-toxic | inactive | – | – | – | – | –
O=C(N[C@@H]1CON(CCc2c[nH]cn2)C1=O)c1cccc(O)c1O | – | – | Non-toxic | Dose-dependent effect | Non-toxic | Active | – | – | – | – | –
